Four compounds from patent US20250145606A1 (Arcus Biosciences, Inc., priority 2023, published 2025) can be followed below.

Usually IC50 stands for the concentration needed to halve the response being measured.

The test system of data set [1] is Sprague Dawley rat hepatocytes. Description: Bioactivation assessment in rat hepatocytes. It is filed as in vitro ADME. The following applies: 5 μM, 4 hours. As to the method:
(§1) Bioactivation Assessment Procedure
(§2) Pooled male Sprague Dawley rat (BioIVT), male beagle dog (BioIVT), male cynomolgus monkey (BioIVT), and a 50-donor pool of cryopreserved human hepatocytes (BioIVT) was thawed in pre-warmed 37° C. InVitroGro™ HT media (BioIVT), centrifuged, and resuspended in the InVitroGro™ HI media (BioIVT). The number of viable cells was determined by the Trypan blue exclusion method. The cells were diluted to a concentration of two million viable cells per milliliter (viability >80%) and seeded into round-bottom 96-well plates. The test articles were dissolved in DMSO and further diluted in 50% CH3CN and InVitroGro™ HI media with final concentrations of 0.05% DMSO and 0.5% CH3CN in the incubation mixture. Incubation was performed at a final concentration of one million cells per milliliter and 5 μM test compounds with continuous shaking at 1100 rpm in a 37° C., 5/95% CO2/air incubator with 100% relative humidity. After 4 hours, the samples were quenched by addition of 3 volumes of CH3CN, vortexed for 15 minutes, and centrifuged at 4200 rpm for 15 minutes at 10° C. (Sorvall Legend XTR centrifuge, Thermo Scientific, Langenselbold, Germany). 80 μL of the resulting supernatant was transferred into a new plate and mixed with 160 μL water followed by liquid chromatography-high resolution mass spectrometry (LC-HRMS) analysis.
(§3) Structural assignments of metabolites were determined through mass spectral analysis. The level of bioactivation was estimated based on the relative peak area of bioactivation products to all identified metabolites. The following equation was used: […]
(§4) Bioactivation products included glutathione conjugates, imine methides, quinones, diols, and other relevant metabolites.

Data set [2] addresses c-Kit (Homo sapiens (Human), UniProt P10721). As to the kind of experiment: Inhibition of c-Kit kinase activity (HTRF KinEASE-TK). It is filed as biochemical. The following applies: biochemical, HTRF KinEASE-TK. The essentials: (§5)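 Recombinant kinases (2 nM CSF1R and c-Kit, 10 nM PDGFRα/β, 2× working) preincubated 1 h with compound in 50 mM HEPES pH 7.4, 5 mM MgCl2 (c-Kit) or 10 mM (others), 2 mM MnCl2; 2× ATP: c-Kit 16 μM, PDGFRα 1 μM, PDGFRβ 40 μM, CSF1R 20 μM. 120 min reaction at rt; TR-FRET 665/620 nm; IC50 by 4-parameter fit.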
(In TR-FRET formats the signal depends on donor and acceptor labels being close together.)

Data set [3] relates to human hepatocytes. Description: Bioactivation assessment in human hepatocytes. It is filed as in vitro ADME. The following applies: 5 μM, 4 hours. As to the method:
as §1, §2, §3, §4

The target in data set [4] is PDGFRα (Homo sapiens (Human), UniProt P16234). As to the kind of experiment: Inhibition of PDGFRα kinase activity (HTRF KinEASE-TK). The following applies: biochemical, HTRF KinEASE-TK. The essentials:
as §5

In data set [5] the test system is beagle dog hepatocytes. Description: Bioactivation assessment in dog hepatocytes. The conditions noted are these: 5 μM, 4 hours. It is filed as in vitro ADME. As to the method: as §1, §2, §3, §4
Data set [6] deals with PDGFRβ (Homo sapiens (Human), UniProt P09619). As to the kind of experiment: Inhibition of PDGFRβ kinase activity (HTRF KinEASE-TK). The following applies: biochemical, HTRF KinEASE-TK. The method, boiled down: as §5
The target of data set [7] is CSF1R (Homo sapiens (Human), UniProt P07333). Description: Inhibition of CSF1R kinase activity (HTRF KinEASE-TK). The conditions noted are these: biochemical, HTRF KinEASE-TK. The essentials: as §5
In data set [8] the test system is Phospho-KIT (Y703) in M07e cells. As to the kind of experiment: Phospho-KIT (Y703) cellular assay in M07e cells. The conditions noted are these: M-07e; M07e cells; read-out: Phospho-KIT (Y703) cellular IC50. The data set is classed as cell-based. The essentials: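 Serum-starved M07e cells preincubated 50 min at 37° C with 11-point half-log compound titration, then stimulated 10 min with SCF at 90.9 ng/mL final. Fixed, permeabilized cells stained for phospho-KIT Y703 and read by flow cytometry (live-gated geometric mean); IC50 by 4-parameter fit normalized to DMSO and positive control.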

Data set [9] concerns the target FLT3 (Homo sapiens (Human), UniProt P36888). Description: Inhibition of FLT3 kinase activity (HTRF KinEASE-TK). It is filed as biochemical. The following applies: biochemical, HTRF KinEASE-TK. The essentials: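 FLT3 tyrosine kinase activity was measured with the HTRF KinEASE-TK kit by following phosphorylation of a biotinylated TK peptide. After the 45 min reaction, 10 μL of detection mix was added: 0.2 μM (2×) Streptavidin-XL665 and 2 μM (2×) TK-Antibody-Cryptate in detection buffer. After 60 min, TR-FRET was read on an Envision as the 665 nm/620 nm emission ratio with 320 nm excitation.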

Data set [10] concerns cynomolgus monkey hepatocytes. Description: Bioactivation assessment in monkey hepatocytes. The following applies: 5 μM, 4 hours. It is filed as in vitro ADME. The procedure: as §1, §2, §3, §4

Sequence of CSF1R (P07333 20-972): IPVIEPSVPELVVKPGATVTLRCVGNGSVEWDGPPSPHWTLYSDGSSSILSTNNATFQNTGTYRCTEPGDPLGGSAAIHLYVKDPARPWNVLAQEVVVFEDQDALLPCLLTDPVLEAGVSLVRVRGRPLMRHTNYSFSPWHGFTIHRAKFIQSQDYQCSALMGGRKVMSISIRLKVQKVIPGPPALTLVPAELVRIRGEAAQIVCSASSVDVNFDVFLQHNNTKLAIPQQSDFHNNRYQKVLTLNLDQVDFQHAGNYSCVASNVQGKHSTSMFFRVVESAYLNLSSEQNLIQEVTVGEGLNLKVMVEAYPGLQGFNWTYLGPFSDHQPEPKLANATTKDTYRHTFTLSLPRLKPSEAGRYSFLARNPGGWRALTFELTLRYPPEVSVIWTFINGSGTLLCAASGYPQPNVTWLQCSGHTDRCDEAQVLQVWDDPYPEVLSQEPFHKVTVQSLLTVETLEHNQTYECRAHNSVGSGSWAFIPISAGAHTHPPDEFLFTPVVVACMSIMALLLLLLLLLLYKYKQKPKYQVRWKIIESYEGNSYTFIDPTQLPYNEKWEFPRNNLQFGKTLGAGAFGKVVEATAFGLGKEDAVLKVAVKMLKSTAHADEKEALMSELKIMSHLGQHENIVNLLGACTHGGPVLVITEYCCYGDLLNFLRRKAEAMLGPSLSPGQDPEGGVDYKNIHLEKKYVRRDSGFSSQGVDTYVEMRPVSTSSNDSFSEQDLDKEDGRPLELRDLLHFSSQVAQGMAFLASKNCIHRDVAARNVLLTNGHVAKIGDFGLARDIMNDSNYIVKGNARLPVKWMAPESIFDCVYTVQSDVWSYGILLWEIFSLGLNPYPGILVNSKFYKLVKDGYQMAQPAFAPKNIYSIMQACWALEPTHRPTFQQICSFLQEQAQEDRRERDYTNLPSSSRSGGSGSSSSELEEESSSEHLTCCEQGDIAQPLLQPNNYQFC
Sequence of c-Kit (P10721 26-976): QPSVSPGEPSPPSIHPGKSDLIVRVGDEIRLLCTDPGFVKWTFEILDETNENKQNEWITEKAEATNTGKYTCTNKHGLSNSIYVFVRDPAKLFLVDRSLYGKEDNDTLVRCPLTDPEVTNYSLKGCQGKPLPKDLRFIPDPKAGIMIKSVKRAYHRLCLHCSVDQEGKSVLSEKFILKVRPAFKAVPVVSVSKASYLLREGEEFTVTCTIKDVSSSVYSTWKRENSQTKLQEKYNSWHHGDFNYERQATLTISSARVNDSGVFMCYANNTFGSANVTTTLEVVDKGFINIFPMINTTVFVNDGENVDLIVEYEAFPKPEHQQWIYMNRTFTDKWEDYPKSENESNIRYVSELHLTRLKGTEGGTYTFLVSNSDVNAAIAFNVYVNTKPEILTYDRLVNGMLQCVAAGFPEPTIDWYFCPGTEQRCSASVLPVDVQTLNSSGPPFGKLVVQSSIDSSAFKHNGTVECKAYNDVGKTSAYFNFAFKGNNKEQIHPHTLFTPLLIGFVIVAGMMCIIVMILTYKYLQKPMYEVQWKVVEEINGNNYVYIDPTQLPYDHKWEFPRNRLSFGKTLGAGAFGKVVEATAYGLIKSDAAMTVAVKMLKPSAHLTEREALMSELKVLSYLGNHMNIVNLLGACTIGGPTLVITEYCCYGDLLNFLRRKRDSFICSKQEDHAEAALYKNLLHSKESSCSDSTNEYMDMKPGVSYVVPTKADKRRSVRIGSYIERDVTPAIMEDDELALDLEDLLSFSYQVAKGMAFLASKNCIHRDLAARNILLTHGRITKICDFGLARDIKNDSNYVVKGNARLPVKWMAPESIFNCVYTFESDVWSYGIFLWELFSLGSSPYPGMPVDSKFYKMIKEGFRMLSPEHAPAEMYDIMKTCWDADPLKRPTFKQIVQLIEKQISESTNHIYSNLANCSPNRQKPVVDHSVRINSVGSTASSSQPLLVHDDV
Sequence of PDGFRβ (P09619 33-1106): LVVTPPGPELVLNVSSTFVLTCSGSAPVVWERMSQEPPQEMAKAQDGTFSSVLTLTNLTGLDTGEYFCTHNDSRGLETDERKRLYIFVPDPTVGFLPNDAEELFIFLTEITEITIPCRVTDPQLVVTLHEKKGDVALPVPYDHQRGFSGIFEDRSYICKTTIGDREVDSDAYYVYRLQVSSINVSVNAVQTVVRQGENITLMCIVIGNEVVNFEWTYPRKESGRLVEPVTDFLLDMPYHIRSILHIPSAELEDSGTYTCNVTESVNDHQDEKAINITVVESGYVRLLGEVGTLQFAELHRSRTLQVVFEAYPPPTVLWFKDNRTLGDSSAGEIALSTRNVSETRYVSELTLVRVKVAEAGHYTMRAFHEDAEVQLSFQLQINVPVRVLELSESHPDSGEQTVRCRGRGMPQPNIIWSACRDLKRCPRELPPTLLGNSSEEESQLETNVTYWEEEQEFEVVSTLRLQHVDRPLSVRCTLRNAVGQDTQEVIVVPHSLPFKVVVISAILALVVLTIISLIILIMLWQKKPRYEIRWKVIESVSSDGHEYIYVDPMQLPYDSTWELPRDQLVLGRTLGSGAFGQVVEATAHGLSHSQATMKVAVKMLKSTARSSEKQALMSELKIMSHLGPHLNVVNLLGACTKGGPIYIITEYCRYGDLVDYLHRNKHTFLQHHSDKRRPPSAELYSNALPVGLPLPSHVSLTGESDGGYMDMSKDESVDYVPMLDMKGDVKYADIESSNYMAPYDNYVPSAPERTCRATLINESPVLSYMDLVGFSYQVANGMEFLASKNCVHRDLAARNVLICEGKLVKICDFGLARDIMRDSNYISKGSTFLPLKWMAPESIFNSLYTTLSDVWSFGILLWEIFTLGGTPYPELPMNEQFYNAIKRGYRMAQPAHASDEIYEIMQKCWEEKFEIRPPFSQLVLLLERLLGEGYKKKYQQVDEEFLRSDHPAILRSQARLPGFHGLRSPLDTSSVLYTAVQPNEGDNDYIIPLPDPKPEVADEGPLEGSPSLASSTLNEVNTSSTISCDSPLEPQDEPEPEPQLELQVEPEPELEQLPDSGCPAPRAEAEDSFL
Sequence of PDGFRα (P16234 24-1089): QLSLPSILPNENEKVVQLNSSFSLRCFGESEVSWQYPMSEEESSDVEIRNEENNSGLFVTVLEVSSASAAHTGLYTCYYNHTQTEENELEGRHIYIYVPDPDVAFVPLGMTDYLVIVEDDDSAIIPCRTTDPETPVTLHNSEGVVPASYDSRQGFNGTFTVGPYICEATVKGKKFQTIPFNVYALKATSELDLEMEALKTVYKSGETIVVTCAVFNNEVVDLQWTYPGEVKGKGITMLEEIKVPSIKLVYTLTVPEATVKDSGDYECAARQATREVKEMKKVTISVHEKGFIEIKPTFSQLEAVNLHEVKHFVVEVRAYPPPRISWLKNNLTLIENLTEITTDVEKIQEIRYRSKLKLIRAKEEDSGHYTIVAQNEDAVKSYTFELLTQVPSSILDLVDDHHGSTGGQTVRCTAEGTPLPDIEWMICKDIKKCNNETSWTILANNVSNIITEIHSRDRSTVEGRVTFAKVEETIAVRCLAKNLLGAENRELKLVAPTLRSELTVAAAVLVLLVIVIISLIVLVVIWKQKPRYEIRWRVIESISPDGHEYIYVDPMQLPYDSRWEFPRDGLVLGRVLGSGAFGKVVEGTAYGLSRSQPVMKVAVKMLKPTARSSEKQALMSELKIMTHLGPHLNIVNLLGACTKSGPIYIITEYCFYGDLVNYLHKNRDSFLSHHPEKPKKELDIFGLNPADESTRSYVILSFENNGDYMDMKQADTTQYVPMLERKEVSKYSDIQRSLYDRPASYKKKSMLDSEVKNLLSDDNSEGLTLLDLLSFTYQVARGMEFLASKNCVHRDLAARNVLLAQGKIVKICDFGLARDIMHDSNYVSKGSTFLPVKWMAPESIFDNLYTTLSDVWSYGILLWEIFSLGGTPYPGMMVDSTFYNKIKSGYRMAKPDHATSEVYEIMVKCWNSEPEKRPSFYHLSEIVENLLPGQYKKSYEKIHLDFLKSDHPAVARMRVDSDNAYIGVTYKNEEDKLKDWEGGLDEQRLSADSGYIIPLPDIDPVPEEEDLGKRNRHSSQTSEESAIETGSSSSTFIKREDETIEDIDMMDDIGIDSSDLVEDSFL
Sequence of FLT3 (P36888 27-993): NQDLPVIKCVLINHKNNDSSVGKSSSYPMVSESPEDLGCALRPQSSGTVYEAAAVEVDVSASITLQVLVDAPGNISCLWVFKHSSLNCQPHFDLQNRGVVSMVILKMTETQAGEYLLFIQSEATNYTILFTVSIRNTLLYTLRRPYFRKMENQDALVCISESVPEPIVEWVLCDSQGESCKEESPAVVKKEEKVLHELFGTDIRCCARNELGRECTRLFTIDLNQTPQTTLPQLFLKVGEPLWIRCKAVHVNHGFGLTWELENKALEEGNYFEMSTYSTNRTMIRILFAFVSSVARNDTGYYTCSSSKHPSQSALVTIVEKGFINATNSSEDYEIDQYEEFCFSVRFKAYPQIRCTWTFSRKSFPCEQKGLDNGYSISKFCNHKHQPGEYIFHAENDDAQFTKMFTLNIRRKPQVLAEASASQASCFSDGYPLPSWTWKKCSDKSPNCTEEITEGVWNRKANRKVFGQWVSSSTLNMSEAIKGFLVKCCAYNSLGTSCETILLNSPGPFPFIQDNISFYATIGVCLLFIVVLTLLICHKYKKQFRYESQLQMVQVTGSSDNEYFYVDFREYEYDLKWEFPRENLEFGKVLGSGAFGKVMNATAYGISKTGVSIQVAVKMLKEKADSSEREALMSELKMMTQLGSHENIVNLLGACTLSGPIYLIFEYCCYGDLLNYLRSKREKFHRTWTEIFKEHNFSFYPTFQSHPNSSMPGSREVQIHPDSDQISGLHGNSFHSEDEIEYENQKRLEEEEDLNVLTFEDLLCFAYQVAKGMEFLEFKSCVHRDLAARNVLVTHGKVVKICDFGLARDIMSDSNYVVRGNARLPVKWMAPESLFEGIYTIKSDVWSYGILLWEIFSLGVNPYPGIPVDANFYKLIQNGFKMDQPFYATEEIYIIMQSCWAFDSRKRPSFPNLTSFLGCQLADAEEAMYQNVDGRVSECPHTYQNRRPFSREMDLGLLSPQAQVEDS

`Cc1ncc(C(=O)Nc2cc(C(=O)Nc3ccc(CC(F)(F)F)cn3)c(F)cc2F)s1` [Example 242, N-[2,4-difluoro-5-[[5-(2,2,2-trifluoroethyl)pyridin-2-yl]carbamoyl]phenyl]-2-methyl-1,3-thiazole-5-carboxamide]: in data set [1], the “Percent of total metabolism via bioactivation, Rat hepatocytes” value turned out to be 88%. Moreover, the IC50 was 100 to 1000 nM in data set [2], above 1000 nM in [4], above 1000 nM in [6] and above 1000 nM in [7]. Besides, the “Percent of total metabolism via bioactivation, Human hepatocytes” value in data set [3] is reported as below 1%. Besides, the “Percent of total metabolism via bioactivation, Dog hepatocytes” value in data set [5] is listed as 44%.

Turning to `Cc1cc(F)c(C(=O)Nc2ccc(OC(C)C)nn2)cc1NC(=O)c1cnc(N)s1` [Example 259, 2-Amino-N-[4-fluoro-2-methyl-5-[(6-propan-2-yloxypyridazin-3-yl)carbamoyl]phenyl]-1,3-thiazole-5-carboxamide], the IC50 in data set [2] was below 100 nM; in data set [8], below 100 nM; in data set [4], 100 to 1000 nM; in [9], above 1000 nM; in data set [6] it was below 100 nM; in data set [7], 100 to 1000 nM.

On to `COC1(c2ccc(NC(=O)c3cc(NC(=O)c4cnc(N)s4)c(C)cc3F)nc2)CC1` [Example 260, 2-Amino-N-[4-fluoro-5-[[5-(1-methoxycyclopropyl)pyridin-2-yl]carbamoyl]-2-methylphenyl]-1,3-thiazole-5-carboxamide], for which the IC50 is below 100 nM in data set [2]; below 100 nM in [8]; above 1000 nM in data set [4]; above 1000 nM in data set [9]; 100 to 1000 nM in [6]; 100 to 1000 nM in data set [7].

`Cc1ccc(-c2noc([C@H]3C[C@@H]3F)n2)cc1NC(=O)c1cnc2ccccn12` [labuxtinib, reference compound]: the “Percent of total metabolism via bioactivation, Rat hepatocytes” value in data set [1] amounted to 45%. In data set [10], the “Percent of total metabolism via bioactivation, Monkey hepatocytes” value amounted to 31%. The “Percent of total metabolism via bioactivation, Human hepatocytes” value in data set [3] was 24%. Also, in data set [5], the “Percent of total metabolism via bioactivation, Dog hepatocytes” value came out at 17%.
